Results as given in patent US20040063611A1, “Pharmaceutical preparation” (Merck Patent GmbH, priority 1998, published 2004).

Legend:
[1] = In-vitro release Test 2 (water); assay type: physicochemical; details: micronized, particle size between 5 μm and 25 μm (to 95%)
Description: (§1) In the Federal Register Vol. 62, No. 15, Aug. 14, 1997; page 43535, the Department of Health and Human. Services, Food and Drug Administration, published the facts that the products available on the U.S. market which comprise levothyroxine sodium and are orally administered have stability problems and therefore must be present in an up to […] excess dose and that manufacturers must develop appropriate novel administration forms. The requirements on in-vitro release for levothyroxine Na tablets have furthermore been increased. The monograph draft version of the Pharmacopeial Forum (Pharm. Preview, 1995, 21, 1459-1461) proposes, in addition to the valid Test 1 (phosphate buffer pH 7.4, in 80 minutes >55%) to approve Test 2 (water in 45 minutes >70%).
(§2) With a particle size between 5 μm and 25 μm (to 95%) , however, a release of the active compound takes place in Test 1 to >90% (phosphate buffer) and in Test 2 to >80% (water).

[2] = In-vitro release Test 1 (phosphate buffer pH 7.4); assay type: physicochemical; details: micronized, particle size between 5 μm and 25 μm (to 95%)
Description: as §1, §2

[3] = non-micronized (customarily), cited from earlier work

In the case of N[C@@H](Cc1cc(I)c(Oc2cc(I)c(O)c(I)c2)c(I)c1)C(=O)O [Levothyroxine sodium, levothyroxine sodium], the “release of the active compound in Test 2” value [1] is given as over 80%, the “release of the active compound in Test 1” value [2] is given as over 90% and the solubility in ethanol ([3]; ethanol) is given as “very sparingly soluble”. The solubility in water ([3]; water) was “very sparingly soluble”.
